The test has as its target PRMT5 (protein arginine methyltransferase 5) (Homo sapiens, UniProt O14744). Put plainly: SPR with immobilized PRMT5 N-terminal TIM barrel. Format: binding.

Sequence of PRMT5 (protein arginine methyltransferase 5) (O14744 1-292): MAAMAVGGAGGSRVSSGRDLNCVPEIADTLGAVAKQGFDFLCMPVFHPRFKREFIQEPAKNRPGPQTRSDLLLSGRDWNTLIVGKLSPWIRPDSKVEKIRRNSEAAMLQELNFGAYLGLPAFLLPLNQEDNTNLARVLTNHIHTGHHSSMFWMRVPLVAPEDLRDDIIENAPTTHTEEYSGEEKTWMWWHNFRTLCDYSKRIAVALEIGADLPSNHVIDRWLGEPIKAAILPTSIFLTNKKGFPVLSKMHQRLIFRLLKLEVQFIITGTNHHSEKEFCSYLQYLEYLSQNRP

On to `O=C(Cc1csc(-c2ccc(C(F)(F)F)cc2)n1)Nc1ccc2oc(=O)[nH]c2c1` [Z319334062], for which the Kd was 21.5 µM.

For orientation: Kd means the concentration at which binding is half-saturated. Read a low Kd as tighter binding.

(Values after paper PMC11740121 (ACS Omega, 2025).)
